From patent US6548553B2, “Styryl sulfone anticancer agents” (Temple University-of the Commonwealth System of Higher …, priority 1997, dated 2003)

Experiments:
Type in all cases: cell-based
Detroit 525 = experiment: GI50 growth inhibition, trypan blue cell count; settings: Homo sapiens; Turner Syndrome skin fibroblast; 96 hours after addition
Method: (§1) The human carcinoma cell lines listed in Table 5 below were purchased from ATCC and grown in an appropriate growth medium containing 10% fetal bovine serum (FBS) and antibiotics. The cells were plated at a cell density of 1.0×10^5 cells per […] in 6-well dishes. The cells were treated with various concentrations of (E)-fluorostyryl-4-bromobenzylsulfone 24 hours after plating in a total volume of 1 ml of medium using dimethylsulfoxide (DMSO) as a solvent for the compound. Control cells were treated with DMSO alone. The total number of viable cells was determined 96 hours after the addition of the compound by counting the cells in each well using a hemacytometer after trypan blue staining (viable cells exclude the stain). The counts were done in duplicate and the average was graphed in FIG. 8 as a percentage of the non-treated control group.
(§2) Applying the same protocol as in Example 34, the GI50 for compound FRI-20 treatment of the cell lines in Table 6 was determined: […]

Raji = experiment: GI50 growth inhibition, trypan blue cell count; settings: Homo sapiens, Burkets lymphoma, 96 hours after addition
Method: as §1, §2

SK-MEL-3 = experiment: GI50 growth inhibition, trypan blue cell count; settings: Homo sapiens, SK-MEL3; melanoma; 96 hours after addition
Method: as §1, §2

H80 = experiment: GI50 growth inhibition, trypan blue cell count; settings: Homo sapiens; glioblastoma; 96 hours after addition
Method: as §1, §2

Hs-802.T = experiment: GI50 growth inhibition, trypan blue cell count; settings: Homo sapiens; squamous cell carcinoma; 96 hours after addition
Method: as §1, §2

TE 354 = experiment: GI50 growth inhibition, trypan blue cell count; settings: Homo sapiens; basal cell carcinoma; 96 hours after addition
Method: as §1, §2

Daudi = experiment: GI50 growth inhibition, trypan blue cell count; settings: Homo sapiens, Burkets lymphoma, 96 hours after addition
Method: as §1, §2

SW1088 = experiment: GI50 growth inhibition, trypan blue cell count; settings: Homo sapiens, astrocytoma, 96 hours after addition
Method: as §1, §2

H209 = experiment: GI50 growth inhibition, trypan blue cell count; settings: Homo sapiens, NCI-H209; lung, small cell; 96 hours after addition
Method: as §1, §2

CAKI-1 = experiment: GI50 growth inhibition, trypan blue cell count; settings: Homo sapiens, renal, 96 hours after addition
Method: as §1, §2

N417 = experiment: GI50 growth inhibition, trypan blue cell count; settings: Homo sapiens, lung, small cell, 96 hours after addition
Method: as §1, §2

Hs 456.BT = experiment: GI50 growth inhibition, trypan blue cell count; settings: Homo sapiens; benign skin lesion; 96 hours after addition
Method: as §1, §2

HCT116 = experiment: GI50 growth inhibition, trypan blue cell count; settings: Homo sapiens, HCT-116; cob-rectal; 96 hours after addition
Method: as §1, §2

CEM = experiment: GI50 growth inhibition, trypan blue cell count; settings: Homo sapiens, CCRF-CEM; acute lymphocytic lymphoma; 96 hours after addition
Method: as §1, §2

BxPC-3 = experiment: GI50 growth inhibition, trypan blue cell count; settings: Homo sapiens, pancreatic, 96 hours after addition
Method: as §1, §2

OvCar-3 = experiment: GI50 growth inhibition, trypan blue cell count; settings: Homo sapiens, ovarian, 96 hours after addition
Method: as §1, §2

SK-ov-3 = experiment: GI50 growth inhibition, trypan blue cell count; settings: Homo sapiens, ovarian, 96 hours after addition
Method: as §1, §2

A431 = experiment: GI50 growth inhibition, trypan blue cell count; settings: Homo sapiens, A-431; epidermoid; 96 hours after addition
Method: as §1, §2

Hs 416.T = experiment: GI50 growth inhibition, trypan blue cell count; settings: Homo sapiens; squamous papilloma; 96 hours after addition
Method: as §1, §2

CAKI-2 = experiment: GI50 growth inhibition, trypan blue cell count; settings: Homo sapiens, renal, 96 hours after addition
Method: as §1, §2

MES-SA = experiment: GI50 growth inhibition, trypan blue cell count; settings: Homo sapiens, uterine sarcoma, 96 hours after addition
Method: as §1, §2

ERK-2 = experiment: Western blot analysis of treated cell lysates with ERK-2 antibody; settings: 2.5 and 5.0 μM, 48 hours; NIH3T3, LnCaP or MCF-7
Method: Cell lysates of FRI-20-treated cells were prepared for Western Blot analysis as follows. NIH3T3, LnCaP or MCF-7 cells were seeded at a density of 2×10^5 cells/per well in a six-well plate and allowed to grow for 24 hours. Fresh medium was added to each well 2 hours before treatment with FRI-20. The compound was dissolved in DMSO to make a 2 mM stock solution and added to the medium (2 ml) to obtain a final concentration of 2.5 and 5.0 μM. After 48 hours at 37° C., the cells were washed twice with 10 ml of ice cold phosphate-buffered saline and harvested in 400 μl of lysis buffer containing 25 mM HEPES (pH 7.6), 0.1% Triton X-100, 300 mM NaCl, 1.5 mM MgCl2, 20 mM β-glycerophosphate, 100 μM Na3VO4, 0.2 mM EDTA, 0.5 mM dithiothreitol, 2 μg/ml aprotinin, 2 μg/ml leupeptin, 100 μM […] and 1 mM benzamidine. The cell lysates were kept on ice for 30 minutes and centrifuged for 10 minutes in a microcentrifuge (16000 X g). The cell lysates were separated from the debris and normalized for protein content.
Western Blot analysis was carried out on the drug- and mock-treated cell lysates with ERK-2 antibody. Equal amounts of total protein (100 μg) were loaded in each lane of a SDS-PAGE gel (10-12%) and transferred to Immobilon-P (Millipore, USA). […] The antibody was detected using the ECL Western blotting analysis kit (Amersham) following the manufacturer's instructions.

SK-MEL-28 = experiment: GI50 growth inhibition, trypan blue cell count; settings: Homo sapiens, melanoma, 96 hours after addition
Method: as §1

NIH3T3 or HFL = experiment: Cell cycle analysis, normal cell lines

O=S(=O)(/C=C/c1ccc(F)cc1)Cc1ccc(Cl)cc1 [Example 11, E-4-fluorostyryl 4-chlorobenzyl Sulfone] gave a GI50 (Detroit 525) of 3000 nM, a GI50 (Raji) of 2000 nM and a GI50 (SK-MEL-3) of 2000 nM. It also gave a GI50 (H80) of 1500 nM, a GI50 (Hs-802.T) of 4 µM and a GI50 (TE 354) of 4 µM. The GI50 (Daudi) was 2000 nM, the GI50 (SW1088) was 2000 nM and the GI50 (H209) was 1000 nM. It also gave a GI50 (CAKI-1) of 1500 nM, a GI50 (N417) of 1000 nM and a GI50 (Hs 456.BT) of 3000 nM. The GI50 (HCT116) was 1000 nM, the GI50 (CEM) was 1000 nM and the GI50 (BxPC-3) was 500 nM. The GI50 (OvCar-3) was 1500 nM, the GI50 (SK-ov-3) was 1500 nM and the GI50 (A431) was 800 nM. The GI50 (Hs 416.T) was 4 µM, the GI50 (CAKI-2) was 1000 nM and the GI50 (MES-SA) was 1000 nM. The “amount of ERK-2 protein in drug- and mock-treated lysates” value (ERK-2) was “the same amount of protein in both lysates”, the GI50 (SK-MEL-28) was 2000 nM and the “effect on cell cycle progression” value (NIH3T3 or HFL) was “failed to produce a similar effect on cell cycle progression”.
